From ChEMBL document CHEMBL4270488, “Antibacterial Compounds from Marine Bacteria, 2010-2015” (J Nat Prod, 2017)
Converted amounts (≈) assume the structure as drawn. Where a SMILES comes first, the peptide text is derived from it. Bridges are numbered along the chain shown (N, C = ends). [ ]: non-standard residue; d: D form. The star is where a group is joined. ξ: configuration not given here. NMeLeu(3ξ-Me) = CN[C@H](C(=O)O)C(C)C(C)C; d(cisHyp) = O=C(O)[C@H]1C[C@@H](O)CN1; Picolinoyl(3-OH) = O=C(c1ncccc1O)*; NMePhg = CN[C@H](C(=O)O)c1ccccc1; Sar = CNCC(=O)O

Assays:
Assay type in all cases: functional
Enterococcus faecalis = test: Antibacterial activity against Enterococcus faecalis incubated for 18 to 20 hrs by microbroth dilution method
Moraxella catarrhalis = test: Antibacterial activity against Moraxella catarrhalis incubated for 18 to 20 hrs by microbroth dilution method
Streptococcus pyogenes = test: Antibacterial activity against Streptococcus pyogenes incubated for 18 to 20 hrs by microbroth dilution method
Haemophilus influenzae = test: Antibacterial activity against Haemophilus influenzae incubated for 18 to 20 hrs by microbroth dilution method
Staphylococcus aureus [1] = test: Antibacterial activity against hospital associated methicillin-resistant Staphylococcus aureus incubated for 18 to 20 hrs by microbroth dilution method
Streptococcus agalactiae = test: Antibacterial activity against Streptococcus agalactiae incubated for 18 to 20 hrs by microbroth dilution method
Staphylococcus aureus [2] = test: Antibacterial activity against community associated methicillin-resistant Staphylococcus aureus incubated for 18 to 20 hrs by microbroth dilution method

With CC(C)C[C@H]1NC(=O)[C@@H](NC(=O)c2ncccc2O)[C@@H](C)OC(=O)[C@H](c2ccccc2)N(C)C(=O)[C@H](C)NC(=O)[C@H](C(C)C(C)C)N(C)C(=O)CN(C)C(=O)[C@H]2C[C@@H](O)CN2C1=O (stereo partly drawn) [VIRIFOGRISEIN I] ({Picolinoyl(3-OH)}-T[dL][d(cisHyp)][Sar][NMeLeu(3ξ-Me)]A[NMePhg]; ester 1-C) the MIC (Enterococcus faecalis) was 16 µg/mL (≈ 18.2 µM), the MIC (Moraxella catarrhalis) was 1 µg/mL (≈ 1.14 µM) and the MIC (Streptococcus pyogenes) was 8 µg/mL (≈ 9.1 µM). The MIC (Haemophilus influenzae) was 16 µg/mL (≈ 18.2 µM), the MIC (Staphylococcus aureus [1]) was 1 to 2 µg/mL (≈ 1.14 to 2.28 µM) and the MIC (Streptococcus agalactiae) was 8 µg/mL (≈ 9.1 µM). It also gave an MIC (Staphylococcus aureus [2]) of 1 to 2 µg/mL (≈ 1.14 to 2.28 µM).
